Measurements from ChEMBL document CHEMBL3991601, “The target landscape of clinical kinase drugs” (Science, 2017).
Counter-ions that a name gives are not always drawn. Active and inactive are the calls of the source.

What was measured:
[1] = target: Cyclin-dependent kinase 3 (Homo sapiens, UniProt Q00526)
[2] = target: High affinity nerve growth factor receptor (Homo sapiens, UniProt P04629)
[3] = target: Membrane-associated progesterone receptor component 1 (Homo sapiens, UniProt O00264)
[4] = target: Cyclin-dependent kinase 17 (Homo sapiens, UniProt Q00537)
Chain of Cyclin-dependent kinase 17 (Q00537 whole entry): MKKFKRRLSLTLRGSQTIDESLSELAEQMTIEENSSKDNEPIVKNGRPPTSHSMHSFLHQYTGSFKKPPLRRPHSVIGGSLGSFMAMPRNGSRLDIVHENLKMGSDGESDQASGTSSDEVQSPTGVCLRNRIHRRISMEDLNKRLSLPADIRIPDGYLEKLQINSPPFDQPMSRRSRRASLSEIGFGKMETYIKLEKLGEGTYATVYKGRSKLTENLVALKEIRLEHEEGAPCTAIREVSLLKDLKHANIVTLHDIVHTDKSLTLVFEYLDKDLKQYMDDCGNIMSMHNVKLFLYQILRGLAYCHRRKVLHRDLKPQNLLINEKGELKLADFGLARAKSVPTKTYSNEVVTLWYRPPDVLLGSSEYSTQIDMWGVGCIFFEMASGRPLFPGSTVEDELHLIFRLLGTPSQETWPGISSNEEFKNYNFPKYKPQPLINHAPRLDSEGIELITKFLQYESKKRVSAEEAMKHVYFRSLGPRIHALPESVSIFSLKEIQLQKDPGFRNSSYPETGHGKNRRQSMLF

[5] = target: Ras-related protein Rab-6A (Homo sapiens, UniProt P20340)
Chain of Ras-related protein Rab-6A (P20340 whole entry): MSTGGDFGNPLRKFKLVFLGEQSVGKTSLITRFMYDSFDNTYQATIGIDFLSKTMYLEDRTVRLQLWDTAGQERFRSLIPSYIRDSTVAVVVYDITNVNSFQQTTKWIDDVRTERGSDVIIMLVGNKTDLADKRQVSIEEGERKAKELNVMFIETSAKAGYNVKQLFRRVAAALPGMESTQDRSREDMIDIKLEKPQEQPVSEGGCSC

[6] = target: T1, Breakpoint cluster region protein (Homo sapiens, UniProt P11274)
T1 sequence (P11274 whole entry): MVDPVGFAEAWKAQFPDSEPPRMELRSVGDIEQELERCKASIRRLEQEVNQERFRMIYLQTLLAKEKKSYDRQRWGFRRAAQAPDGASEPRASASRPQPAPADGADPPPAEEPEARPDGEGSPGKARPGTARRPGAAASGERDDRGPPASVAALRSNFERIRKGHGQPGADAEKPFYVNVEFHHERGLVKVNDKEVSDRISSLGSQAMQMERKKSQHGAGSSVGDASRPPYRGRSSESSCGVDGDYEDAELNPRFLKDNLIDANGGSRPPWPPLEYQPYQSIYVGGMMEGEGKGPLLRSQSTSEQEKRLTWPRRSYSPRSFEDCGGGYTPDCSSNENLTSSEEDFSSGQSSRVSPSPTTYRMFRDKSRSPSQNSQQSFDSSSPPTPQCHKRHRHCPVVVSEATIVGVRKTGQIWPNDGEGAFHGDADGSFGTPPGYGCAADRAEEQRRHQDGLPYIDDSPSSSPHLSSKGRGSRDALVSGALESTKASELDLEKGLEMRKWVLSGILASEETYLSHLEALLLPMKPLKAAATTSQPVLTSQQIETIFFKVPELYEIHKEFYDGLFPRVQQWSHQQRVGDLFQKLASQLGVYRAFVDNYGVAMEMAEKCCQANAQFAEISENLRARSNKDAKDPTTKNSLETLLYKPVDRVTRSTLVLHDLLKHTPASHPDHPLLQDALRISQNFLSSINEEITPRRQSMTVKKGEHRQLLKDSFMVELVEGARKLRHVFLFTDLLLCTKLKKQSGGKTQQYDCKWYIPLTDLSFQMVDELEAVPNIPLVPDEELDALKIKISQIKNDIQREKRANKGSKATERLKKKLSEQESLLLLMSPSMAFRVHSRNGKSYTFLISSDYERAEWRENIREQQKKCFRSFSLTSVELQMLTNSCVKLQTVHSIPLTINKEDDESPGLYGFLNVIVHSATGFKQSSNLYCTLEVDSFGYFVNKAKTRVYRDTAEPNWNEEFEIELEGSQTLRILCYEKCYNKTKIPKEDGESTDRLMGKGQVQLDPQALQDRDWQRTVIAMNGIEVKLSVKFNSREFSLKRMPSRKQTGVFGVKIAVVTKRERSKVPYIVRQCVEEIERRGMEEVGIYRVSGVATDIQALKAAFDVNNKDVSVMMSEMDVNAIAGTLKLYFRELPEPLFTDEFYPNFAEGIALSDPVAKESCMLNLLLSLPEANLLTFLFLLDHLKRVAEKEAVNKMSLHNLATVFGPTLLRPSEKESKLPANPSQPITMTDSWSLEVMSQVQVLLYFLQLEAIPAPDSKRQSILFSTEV

[7] = target: Serine/threonine-protein kinase Nek7 (Homo sapiens, UniProt Q8TDX7)
Chain of Serine/threonine-protein kinase Nek7 (Q8TDX7 whole entry): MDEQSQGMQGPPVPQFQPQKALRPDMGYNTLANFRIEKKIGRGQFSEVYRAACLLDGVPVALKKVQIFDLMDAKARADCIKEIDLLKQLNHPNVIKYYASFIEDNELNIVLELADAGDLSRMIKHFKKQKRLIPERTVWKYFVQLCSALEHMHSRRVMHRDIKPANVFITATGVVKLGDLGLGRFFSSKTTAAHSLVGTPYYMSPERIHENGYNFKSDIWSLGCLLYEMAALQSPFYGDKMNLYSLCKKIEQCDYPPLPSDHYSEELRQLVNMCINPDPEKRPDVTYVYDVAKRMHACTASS

[8] = target: T2, Ras-related protein Rab-10 (Homo sapiens, UniProt P61026)
T2 sequence (P61026 whole entry): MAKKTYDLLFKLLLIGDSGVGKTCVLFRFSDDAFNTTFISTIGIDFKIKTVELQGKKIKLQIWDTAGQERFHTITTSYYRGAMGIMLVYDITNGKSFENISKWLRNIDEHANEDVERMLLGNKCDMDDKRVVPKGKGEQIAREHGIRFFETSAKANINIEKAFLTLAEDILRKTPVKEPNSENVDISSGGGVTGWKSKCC

[9] = target: T3, Long-chain-fatty-acid--CoA ligase 5 (Homo sapiens, UniProt Q9ULC5)
T3 sequence (Q9ULC5 whole entry): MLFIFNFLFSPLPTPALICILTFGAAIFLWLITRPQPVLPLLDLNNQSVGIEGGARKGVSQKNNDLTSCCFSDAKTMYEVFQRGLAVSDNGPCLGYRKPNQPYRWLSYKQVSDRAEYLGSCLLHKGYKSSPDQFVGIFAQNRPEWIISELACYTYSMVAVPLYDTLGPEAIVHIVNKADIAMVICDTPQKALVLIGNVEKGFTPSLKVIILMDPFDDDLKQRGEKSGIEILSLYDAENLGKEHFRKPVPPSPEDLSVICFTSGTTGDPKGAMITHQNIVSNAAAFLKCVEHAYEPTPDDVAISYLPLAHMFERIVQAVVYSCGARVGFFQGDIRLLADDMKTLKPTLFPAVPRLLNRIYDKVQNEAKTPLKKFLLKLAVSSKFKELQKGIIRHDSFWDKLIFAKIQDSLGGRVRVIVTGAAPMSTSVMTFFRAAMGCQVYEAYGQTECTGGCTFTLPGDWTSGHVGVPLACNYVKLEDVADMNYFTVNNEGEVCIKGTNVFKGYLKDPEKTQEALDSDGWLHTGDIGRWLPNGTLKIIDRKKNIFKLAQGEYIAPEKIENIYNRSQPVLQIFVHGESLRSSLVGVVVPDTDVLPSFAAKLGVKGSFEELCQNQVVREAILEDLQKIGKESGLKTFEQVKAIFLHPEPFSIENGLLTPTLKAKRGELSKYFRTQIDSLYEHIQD

[10] = target: T4, Electron transfer flavoprotein subunit beta (Homo sapiens, UniProt P38117)
T4 sequence (P38117 whole entry): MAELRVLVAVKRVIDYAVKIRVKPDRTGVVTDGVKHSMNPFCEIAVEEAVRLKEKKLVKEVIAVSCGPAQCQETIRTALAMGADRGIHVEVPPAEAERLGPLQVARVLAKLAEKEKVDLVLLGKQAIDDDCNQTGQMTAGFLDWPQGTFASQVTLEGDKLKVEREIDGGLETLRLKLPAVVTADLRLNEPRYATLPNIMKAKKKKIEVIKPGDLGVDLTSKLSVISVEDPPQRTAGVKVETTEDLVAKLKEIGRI

[11] = target: Serine/threonine-protein kinase pim-2 (Homo sapiens, UniProt Q9P1W9)
Chain of Serine/threonine-protein kinase pim-2 (Q9P1W9 whole entry): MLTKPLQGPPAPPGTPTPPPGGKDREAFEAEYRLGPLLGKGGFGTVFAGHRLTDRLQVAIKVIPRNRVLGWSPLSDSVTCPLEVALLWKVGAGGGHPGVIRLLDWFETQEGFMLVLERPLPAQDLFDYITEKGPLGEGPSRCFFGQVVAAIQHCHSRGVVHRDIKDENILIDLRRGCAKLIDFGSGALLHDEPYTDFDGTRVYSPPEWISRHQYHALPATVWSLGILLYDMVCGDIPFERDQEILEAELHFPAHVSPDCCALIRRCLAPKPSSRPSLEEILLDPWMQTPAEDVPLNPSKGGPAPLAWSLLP

Measured: Kd
Also: in the data inactive means no Kd found up to 30 µM.

Chain of High affinity nerve growth factor receptor (P04629 whole entry): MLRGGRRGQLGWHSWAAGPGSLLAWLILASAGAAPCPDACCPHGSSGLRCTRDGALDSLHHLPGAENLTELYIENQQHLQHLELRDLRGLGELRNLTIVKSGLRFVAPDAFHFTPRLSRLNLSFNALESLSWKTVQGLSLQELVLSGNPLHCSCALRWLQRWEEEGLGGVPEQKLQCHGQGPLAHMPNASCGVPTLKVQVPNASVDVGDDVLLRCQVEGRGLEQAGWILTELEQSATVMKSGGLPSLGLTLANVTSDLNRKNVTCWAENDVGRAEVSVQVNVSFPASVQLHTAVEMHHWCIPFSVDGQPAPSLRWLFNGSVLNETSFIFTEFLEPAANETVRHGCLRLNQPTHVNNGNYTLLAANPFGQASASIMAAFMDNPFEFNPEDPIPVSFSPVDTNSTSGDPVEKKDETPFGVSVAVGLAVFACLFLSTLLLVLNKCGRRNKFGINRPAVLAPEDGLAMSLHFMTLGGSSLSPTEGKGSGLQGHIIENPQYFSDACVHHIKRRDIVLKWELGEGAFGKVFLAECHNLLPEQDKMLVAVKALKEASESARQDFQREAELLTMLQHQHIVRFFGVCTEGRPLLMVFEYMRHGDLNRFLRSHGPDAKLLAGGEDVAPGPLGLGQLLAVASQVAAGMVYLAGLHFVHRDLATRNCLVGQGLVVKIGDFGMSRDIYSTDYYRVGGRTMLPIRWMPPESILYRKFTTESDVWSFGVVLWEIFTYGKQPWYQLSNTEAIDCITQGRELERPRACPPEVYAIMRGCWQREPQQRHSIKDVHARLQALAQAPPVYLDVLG
Chain of Cyclin-dependent kinase 3 (Q00526 whole entry): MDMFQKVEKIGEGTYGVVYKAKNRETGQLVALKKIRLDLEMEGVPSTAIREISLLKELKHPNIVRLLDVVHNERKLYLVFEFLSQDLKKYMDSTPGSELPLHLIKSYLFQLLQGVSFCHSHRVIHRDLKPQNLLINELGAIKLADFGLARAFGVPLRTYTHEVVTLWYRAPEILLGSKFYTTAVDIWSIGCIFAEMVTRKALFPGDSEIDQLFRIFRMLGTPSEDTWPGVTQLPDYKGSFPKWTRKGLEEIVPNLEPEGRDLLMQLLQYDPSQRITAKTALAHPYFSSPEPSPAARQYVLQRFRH
Chain of Membrane-associated progesterone receptor component 1 (O00264 whole entry): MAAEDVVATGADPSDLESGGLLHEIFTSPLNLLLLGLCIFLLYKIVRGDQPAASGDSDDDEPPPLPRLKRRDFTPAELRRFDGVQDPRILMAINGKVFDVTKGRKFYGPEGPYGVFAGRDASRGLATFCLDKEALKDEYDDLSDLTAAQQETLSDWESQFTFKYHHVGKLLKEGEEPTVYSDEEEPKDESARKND

C[C@H]1CNCCCN1S(=O)(=O)c1cccc2cncc(F)c12
inactive: [1] > 30 µM | [2] > 30 µM | [3] > 30 µM | [4] > 30 µM | [5] > 30 µM | [6] > 30 µM | [7] > 30 µM | [8] > 30 µM

CCNC(=O)C#Cc1ccc2c(c1)NC(=O)/C2=C(\Nc1ccc(CN(C)C)cc1)c1ccccc1
inactive: [3] > 30 µM | [4] > 30 µM | [9] > 30 µM | [5] > 30 µM | [6] > 30 µM | [7] > 30 µM | [8] > 30 µM
active: [1] 0.897 µM

COc1cc(Nc2ncc3c(n2)-c2ccc(Cl)cc2C(c2c(F)cccc2OC)=NC3)ccc1C(=O)O [ALISERTIB]
1.35 µM: [8]
inactive: [1] > 30 µM | [3] > 30 µM | [4] > 30 µM | [9] > 30 µM | [5] > 30 µM | [10] > 30 µM | [6] > 30 µM | [7] > 30 µM

Cc1nc(NC(=O)N2CCC[C@H]2C(N)=O)sc1-c1ccnc(C(C)(C)C(F)(F)F)c1 [ALPELISIB]
inactive: [1] > 30 µM | [3] > 30 µM | [5] > 30 µM | [10] > 30 µM | [6] > 30 µM | [8] > 30 µM

Cc1csc(-c2nnc(Nc3ccc(Oc4ncccc4-c4ccnc(N)n4)cc3)c3ccccc23)c1 [AMG-900]
active: [6] 1.97 µM
inactive: [1] > 30 µM | [2] > 30 µM | [3] > 30 µM | [4] > 30 µM | [5] > 30 µM | [10] > 30 µM | [11] > 30 µM | [8] > 30 µM

C=CC(=O)Nc1cc2c(Nc3ccc(F)c(Cl)c3)ncnc2cc1C#CC(C)(C)N1CCN(C)CC1 [AV-412 FREE BASE]
inactive: [1] > 30 µM | [2] > 30 µM | [3] > 30 µM | [9] > 30 µM | [5] > 30 µM | [6] > 30 µM | [11] > 30 µM | [8] > 30 µM

COc1cc([C@@H]2c3cc4c(cc3[C@H](O)[C@H]3COC(=O)[C@@H]23)OCO4)cc(OC)c1OC [AXL-1717]
inactive: [1] > 30 µM | [2] > 30 µM | [3] > 30 µM | [4] > 30 µM | [9] > 30 µM | [5] > 30 µM | [10] > 30 µM | [6] > 30 µM | [11] > 30 µM | [8] > 30 µM

CCS(=O)(=O)N1CCN(c2ccc(Nc3ncc(C(N)=O)c(NC4CC4)n3)cc2)CC1 [Cerdulatinib Hydrochloride]
inactive: [1] > 30 µM | [2] > 30 µM | [3] > 30 µM | [4] > 30 µM | [9] > 30 µM | [5] > 30 µM | [6] > 30 µM | [11] > 30 µM | [8] > 30 µM

Cn1cc(C2=C(c3cn(C4CCN(Cc5ccccn5)CC4)c4ccccc34)C(=O)NC2=O)c2ccccc21 [ENZASTAURIN]
inactive: [5] > 30 µM | [6] > 30 µM | [8] > 30 µM

Cc1nc2cc(-n3ncc(C(=O)c4cc5ccccc5[nH]4)c3N)ccc2[nH]1 [FGFR INHIBITOR DEBIO 1347]
inactive: [1] > 30 µM | [2] > 30 µM | [3] > 30 µM | [4] > 30 µM | [9] > 30 µM | [5] > 30 µM | [10] > 30 µM | [6] > 30 µM | [11] > 30 µM | [8] > 30 µM

CN(C[C@@H]1COCCO1)S(=O)(=O)Nc1ccc2ccc3ncc(-c4cnn(C)c4)cc3c(=O)c2c1 [MK-2461]
inactive: [1] > 30 µM | [2] > 30 µM | [3] > 30 µM | [4] > 30 µM | [5] > 30 µM | [10] > 30 µM | [6] > 30 µM | [11] > 30 µM | [8] > 30 µM

NC(=O)c1c(OCc2c(F)cc(Br)cc2F)nsc1NC(=O)NCCCCN1CCCC1 [OSI-632]
active: [6] 2.6 µM
inactive: [1] > 30 µM | [3] > 30 µM | [9] > 30 µM | [5] > 30 µM | [10] > 30 µM | [8] > 30 µM

O=C(NOCCO)c1cc(CN2OCCCC2=O)c(F)c(F)c1Nc1ccc(I)cc1F [RO-4987655]
inactive: [3] > 30 µM | [9] > 30 µM | [5] > 30 µM | [10] > 30 µM | [6] > 30 µM | [8] > 30 µM

N#CC[C@H](C1CCCC1)n1cc(-c2ncnc3[nH]ccc23)cn1 [RUXOLITINIB]
inactive: [10] > 30 µM | [6] > 30 µM | [8] > 30 µM

CCS(=O)(=O)c1cccc(-c2cc(C(=O)NC3CCN(C)CC3)c(C)c3[nH]c4ncc(C)cc4c23)c1 [TAK-901]
active: [2] 0.843 µM | [6] 0.133 µM
inactive: [1] > 30 µM | [3] > 30 µM | [4] > 30 µM | [9] > 30 µM | [5] > 30 µM | [11] > 30 µM | [8] > 30 µM

Cn1ncc(Cl)c1-c1cc(C(=O)N[C@H](CN)Cc2ccc(F)c(F)c2)oc1Cl [UPROSERTIB]
inactive: [1] > 30 µM | [2] > 30 µM | [3] > 30 µM | [5] > 30 µM | [10] > 30 µM | [6] > 30 µM | [11] > 30 µM | [8] > 30 µM

CN1C/C=C/CCOc2cccc(c2)-c2ccnc(n2)Nc2cccc(c2)C1 [ZOTIRACICLIB]
inactive: [1] > 30 µM | [3] > 30 µM | [4] > 30 µM | [9] > 30 µM | [5] > 30 µM | [6] > 30 µM | [7] > 30 µM | [8] > 30 µM
